Assays:
Adenosine A2 receptor = Adenosine A2 receptor (Rattus norvegicus, UniProt P29276+P30543)
[1] = Inhibition of Adenylate Cyclase in Rat adipocytes; assay type: cell-based
Adenosine receptor A1 = target: T1, Adenosine receptor A1 (Rattus norvegicus, UniProt P25099)
T1 sequence (P25099 whole entry): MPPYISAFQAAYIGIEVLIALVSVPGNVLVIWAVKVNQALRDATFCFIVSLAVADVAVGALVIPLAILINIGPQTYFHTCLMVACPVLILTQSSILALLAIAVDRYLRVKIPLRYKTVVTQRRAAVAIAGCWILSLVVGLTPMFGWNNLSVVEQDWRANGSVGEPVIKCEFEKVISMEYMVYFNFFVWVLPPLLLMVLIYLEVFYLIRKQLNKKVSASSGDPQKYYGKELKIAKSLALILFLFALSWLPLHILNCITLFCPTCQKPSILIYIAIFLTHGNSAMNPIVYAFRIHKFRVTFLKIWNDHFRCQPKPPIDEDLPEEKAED

Row | Ki (Adenosine A2 receptor) [nM] | IC50 [1] [nM] | Ki (Adenosine receptor A1) [nM] | Compound
1 | 157 |  |  | CCCn1c(=O)c2nc([C@H](C)Cc3ccccc3)[nH]c2n(CCC)c1=O
2 | 350 | 2200 |  | OC[C@H]1O[C@@H](n2cnc3c(NCc4ccccc4)ncnc32)[C@H](O)[C@@H]1O [N6-BENZYLADENOSINE]
3 | 1.1 | 19.2 |  | OC[C@H]1O[C@@H](n2cnc3c(NC4CCCC4)ncnc32)[C@H](O)[C@@H]1O [N6-CYCLOPENTYLADENOSINE]
4 |  |  | 2.1 | OC[C@H]1O[C@@H](n2cnc3c(NC4CC4)ncnc32)[C@H](O)[C@@H]1O
5 | 644 |  |  | CCCn1c(=O)c2nc(C(C)Cc3ccccc3)[nH]c2n(CCC)c1=O (stereo not given)
6 | 20.9 | 37 |  | Cn1c(=O)c2nc(-c3ccccc3)[nH]c2n(C)c1=O [8-PHENYL THEOPHYLLINE]
7 |  | 890 |  | Cn1c(=O)c2nc(Cc3ccccc3)[nH]c2n(C)c1=O
8 |  | 27 |  | OC[C@H]1O[C@@H](n2cnc3c(NC4CCCCC4)ncnc32)[C@H](O)[C@@H]1O
9 | 848 |  |  | CCCn1c(=O)c2nc([C@@H](C)Cc3ccccc3)[nH]c2n(CCC)c1=O
10 |  | 42 |  | Cn1c(=O)c2nc(C3CC3)[nH]c2n(C)c1=O
11 |  | 0.47 | 0.46 | Cn1c(=O)c2nc(C3CCCC3)[nH]c2n(C)c1=O [8-CYCLOPENTYLTHEOPHYLLINE]

Row | Compound | Ki (Adenosine A2 receptor) [nM] | IC50 [1] [nM] | Ki (Adenosine receptor A1) [nM]
12 | Cn1c(=O)c2nc[nH]c2n(C)c1=O [THEOPHYLLINE] |  | 940 | 
13 | Cn1c(=O)c2nc(C3CCCCC3)[nH]c2n(C)c1=O | 4.7 | 2.5 | 
14 | OC[C@H]1O[C@@H](n2cnc3c(Nc4ccccc4)ncnc32)[C@H](O)[C@@H]1O [N6-PHENYLADENOSINE] | 110 | 190 | 
